ChEMBL document CHEMBL4507291 (2021)

Tests used:
[1] = target: Cyclin-dependent kinase 19 (Homo sapiens) (UniProt Q9BWU1)
[2] = target: Serine/threonine-protein kinase PAK 1 (Homo sapiens) (UniProt Q13153)
[3] = target: NUAK family SNF1-like kinase 2 (Homo sapiens) (UniProt Q9H093)
[4] = target: T1, Ephrin type-B receptor 3 (Homo sapiens) (UniProt P54753)
T1 sequence (whole entry): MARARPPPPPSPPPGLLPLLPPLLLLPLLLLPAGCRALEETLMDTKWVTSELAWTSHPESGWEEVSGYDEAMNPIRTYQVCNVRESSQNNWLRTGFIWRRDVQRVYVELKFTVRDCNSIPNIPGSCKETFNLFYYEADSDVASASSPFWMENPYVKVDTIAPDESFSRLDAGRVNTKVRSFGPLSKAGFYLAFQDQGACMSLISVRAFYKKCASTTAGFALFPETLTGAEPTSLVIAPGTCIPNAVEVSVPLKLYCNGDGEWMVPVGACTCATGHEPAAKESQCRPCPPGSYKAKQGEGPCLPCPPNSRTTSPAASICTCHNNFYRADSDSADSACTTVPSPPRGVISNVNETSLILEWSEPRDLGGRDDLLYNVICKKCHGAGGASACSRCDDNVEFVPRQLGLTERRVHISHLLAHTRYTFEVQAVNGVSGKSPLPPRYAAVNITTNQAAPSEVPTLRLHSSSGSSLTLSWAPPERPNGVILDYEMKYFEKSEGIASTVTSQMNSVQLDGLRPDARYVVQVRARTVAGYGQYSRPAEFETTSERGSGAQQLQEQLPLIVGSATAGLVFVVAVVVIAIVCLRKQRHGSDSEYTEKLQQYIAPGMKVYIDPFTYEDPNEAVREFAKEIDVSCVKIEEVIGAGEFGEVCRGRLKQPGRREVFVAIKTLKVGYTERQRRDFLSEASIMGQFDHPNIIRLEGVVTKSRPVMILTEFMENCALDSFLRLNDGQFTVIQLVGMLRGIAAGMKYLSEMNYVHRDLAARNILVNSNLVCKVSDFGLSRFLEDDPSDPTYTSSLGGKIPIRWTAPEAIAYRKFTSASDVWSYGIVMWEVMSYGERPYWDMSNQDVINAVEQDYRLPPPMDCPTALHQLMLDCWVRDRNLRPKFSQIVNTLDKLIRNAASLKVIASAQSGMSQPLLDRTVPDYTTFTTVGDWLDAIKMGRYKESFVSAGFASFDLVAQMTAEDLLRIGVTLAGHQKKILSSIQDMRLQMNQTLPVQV

[5] = target: Tyrosine-protein kinase ABL1 (Homo sapiens) (UniProt P00519)
[6] = target: T2, Inhibitor of nuclear factor kappa-B kinase subunit beta (Homo sapiens) (UniProt O14920)
T2 sequence (whole entry): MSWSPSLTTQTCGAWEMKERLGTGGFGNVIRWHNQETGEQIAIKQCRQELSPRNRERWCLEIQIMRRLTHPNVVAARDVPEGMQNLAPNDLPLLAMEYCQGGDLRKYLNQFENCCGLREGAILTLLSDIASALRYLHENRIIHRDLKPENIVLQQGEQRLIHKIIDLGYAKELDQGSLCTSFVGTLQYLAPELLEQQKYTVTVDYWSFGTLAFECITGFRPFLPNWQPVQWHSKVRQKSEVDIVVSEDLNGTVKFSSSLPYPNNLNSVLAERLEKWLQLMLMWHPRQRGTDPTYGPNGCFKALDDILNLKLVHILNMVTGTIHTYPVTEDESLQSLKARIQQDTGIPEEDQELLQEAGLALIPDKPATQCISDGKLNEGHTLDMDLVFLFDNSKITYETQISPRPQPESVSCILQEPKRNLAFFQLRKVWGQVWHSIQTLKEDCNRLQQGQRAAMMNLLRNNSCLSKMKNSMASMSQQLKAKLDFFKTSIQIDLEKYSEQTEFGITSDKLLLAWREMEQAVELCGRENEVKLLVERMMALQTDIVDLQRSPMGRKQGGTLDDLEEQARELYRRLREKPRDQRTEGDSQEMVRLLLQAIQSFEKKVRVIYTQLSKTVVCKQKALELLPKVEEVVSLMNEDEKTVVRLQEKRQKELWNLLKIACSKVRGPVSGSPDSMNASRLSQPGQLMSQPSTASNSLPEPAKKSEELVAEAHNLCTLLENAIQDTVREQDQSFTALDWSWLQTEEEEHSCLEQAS

[7] = target: Mitogen-activated protein kinase kinase kinase 4 (Homo sapiens) (UniProt Q9Y6R4)
[8] = target: Dual specificity protein kinase CLK2 (Homo sapiens) (UniProt P49760)
[9] = system: Phosphatidylinositol 4,5-bisphosphate 3-kinase catalytic subunit alpha isoform (Homo sapiens), P42336 [H1047Y]
[10] = target: T3, Serine/threonine-protein kinase 4 (Homo sapiens) (UniProt Q13043)
T3 sequence (whole entry): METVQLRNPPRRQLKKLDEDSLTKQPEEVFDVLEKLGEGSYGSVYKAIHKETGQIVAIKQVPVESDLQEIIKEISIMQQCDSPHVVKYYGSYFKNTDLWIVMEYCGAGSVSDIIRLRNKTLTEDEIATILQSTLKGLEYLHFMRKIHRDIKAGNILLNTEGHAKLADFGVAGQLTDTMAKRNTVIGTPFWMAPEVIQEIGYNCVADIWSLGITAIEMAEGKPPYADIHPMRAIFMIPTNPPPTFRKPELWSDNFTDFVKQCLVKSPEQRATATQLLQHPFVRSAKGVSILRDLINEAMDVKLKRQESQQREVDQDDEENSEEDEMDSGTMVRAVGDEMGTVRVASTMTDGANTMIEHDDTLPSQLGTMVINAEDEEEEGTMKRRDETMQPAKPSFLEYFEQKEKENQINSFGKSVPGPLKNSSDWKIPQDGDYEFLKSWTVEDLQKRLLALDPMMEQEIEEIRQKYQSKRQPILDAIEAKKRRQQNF

[11] = Compound concentration 1000.0 nM
[12] = Compound concentration 100.0 nM

Measured: residual activity

Tyrosine-protein kinase ABL1 (Homo sapiens), sequence (P00519 whole entry): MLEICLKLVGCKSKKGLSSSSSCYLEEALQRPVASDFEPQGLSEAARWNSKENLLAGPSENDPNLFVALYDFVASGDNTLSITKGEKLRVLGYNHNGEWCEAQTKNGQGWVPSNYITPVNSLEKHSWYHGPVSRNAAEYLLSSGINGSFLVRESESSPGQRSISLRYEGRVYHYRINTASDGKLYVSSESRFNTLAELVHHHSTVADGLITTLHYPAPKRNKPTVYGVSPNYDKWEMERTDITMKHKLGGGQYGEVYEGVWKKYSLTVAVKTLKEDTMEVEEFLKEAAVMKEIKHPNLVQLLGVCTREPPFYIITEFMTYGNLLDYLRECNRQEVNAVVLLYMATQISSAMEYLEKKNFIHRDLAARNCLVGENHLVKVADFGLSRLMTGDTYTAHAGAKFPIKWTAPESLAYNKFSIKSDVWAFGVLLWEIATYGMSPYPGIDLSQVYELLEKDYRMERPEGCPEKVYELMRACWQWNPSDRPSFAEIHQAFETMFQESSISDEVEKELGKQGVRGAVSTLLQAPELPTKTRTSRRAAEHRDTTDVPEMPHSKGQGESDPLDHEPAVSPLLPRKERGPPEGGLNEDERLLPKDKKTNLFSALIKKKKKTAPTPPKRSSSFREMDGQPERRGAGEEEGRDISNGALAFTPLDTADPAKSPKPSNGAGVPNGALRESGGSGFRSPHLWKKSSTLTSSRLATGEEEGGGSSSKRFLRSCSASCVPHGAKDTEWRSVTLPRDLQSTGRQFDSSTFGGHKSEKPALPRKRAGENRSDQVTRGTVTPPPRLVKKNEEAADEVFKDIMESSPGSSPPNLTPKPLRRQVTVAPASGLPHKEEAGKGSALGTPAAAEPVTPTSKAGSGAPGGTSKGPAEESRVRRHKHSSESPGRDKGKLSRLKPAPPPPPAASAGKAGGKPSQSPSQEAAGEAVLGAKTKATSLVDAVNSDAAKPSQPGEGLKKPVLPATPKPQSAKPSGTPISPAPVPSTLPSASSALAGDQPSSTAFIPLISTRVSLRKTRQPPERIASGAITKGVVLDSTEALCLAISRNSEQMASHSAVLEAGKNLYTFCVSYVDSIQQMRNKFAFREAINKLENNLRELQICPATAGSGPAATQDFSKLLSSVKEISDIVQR
Mitogen-activated protein kinase kinase kinase 4 (Homo sapiens), sequence (Q9Y6R4 whole entry): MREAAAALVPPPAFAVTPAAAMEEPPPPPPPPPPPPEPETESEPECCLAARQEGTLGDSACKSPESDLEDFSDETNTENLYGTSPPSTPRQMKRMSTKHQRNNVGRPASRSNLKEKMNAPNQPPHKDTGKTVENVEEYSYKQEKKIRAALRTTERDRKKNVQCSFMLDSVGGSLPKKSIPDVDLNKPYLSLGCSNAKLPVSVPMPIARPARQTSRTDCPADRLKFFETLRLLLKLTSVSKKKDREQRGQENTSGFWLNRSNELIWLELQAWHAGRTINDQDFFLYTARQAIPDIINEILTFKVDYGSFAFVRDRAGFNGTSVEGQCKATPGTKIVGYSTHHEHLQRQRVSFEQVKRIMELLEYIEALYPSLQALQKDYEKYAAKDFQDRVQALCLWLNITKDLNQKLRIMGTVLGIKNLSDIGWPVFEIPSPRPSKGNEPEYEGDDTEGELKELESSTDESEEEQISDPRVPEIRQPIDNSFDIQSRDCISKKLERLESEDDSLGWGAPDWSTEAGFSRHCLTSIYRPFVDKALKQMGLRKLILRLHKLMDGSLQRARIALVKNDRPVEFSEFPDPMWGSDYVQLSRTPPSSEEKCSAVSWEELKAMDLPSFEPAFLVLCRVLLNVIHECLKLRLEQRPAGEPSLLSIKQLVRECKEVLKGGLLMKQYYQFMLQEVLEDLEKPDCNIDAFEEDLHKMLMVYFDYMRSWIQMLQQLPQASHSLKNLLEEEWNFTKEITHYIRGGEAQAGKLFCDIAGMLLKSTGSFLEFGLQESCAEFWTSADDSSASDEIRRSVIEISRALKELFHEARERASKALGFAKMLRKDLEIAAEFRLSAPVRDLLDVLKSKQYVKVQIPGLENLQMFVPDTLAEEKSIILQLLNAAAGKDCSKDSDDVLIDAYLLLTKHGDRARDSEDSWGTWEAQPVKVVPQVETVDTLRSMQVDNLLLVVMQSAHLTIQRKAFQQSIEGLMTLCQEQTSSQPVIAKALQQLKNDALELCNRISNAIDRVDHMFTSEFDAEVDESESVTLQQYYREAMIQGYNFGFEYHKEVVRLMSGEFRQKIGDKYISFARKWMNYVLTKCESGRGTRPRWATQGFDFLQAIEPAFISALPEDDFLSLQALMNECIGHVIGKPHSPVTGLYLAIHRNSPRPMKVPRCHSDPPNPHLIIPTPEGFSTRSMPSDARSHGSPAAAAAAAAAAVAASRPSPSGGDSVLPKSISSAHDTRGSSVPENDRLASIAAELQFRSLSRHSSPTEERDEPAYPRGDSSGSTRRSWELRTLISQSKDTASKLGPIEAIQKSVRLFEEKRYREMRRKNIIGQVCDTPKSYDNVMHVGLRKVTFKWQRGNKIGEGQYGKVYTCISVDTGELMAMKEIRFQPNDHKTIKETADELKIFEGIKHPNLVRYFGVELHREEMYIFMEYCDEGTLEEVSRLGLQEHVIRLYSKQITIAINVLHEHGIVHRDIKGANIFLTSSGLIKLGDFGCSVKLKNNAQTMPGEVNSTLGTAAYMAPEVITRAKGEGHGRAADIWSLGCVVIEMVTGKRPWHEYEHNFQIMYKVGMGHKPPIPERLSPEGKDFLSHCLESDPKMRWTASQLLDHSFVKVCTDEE
Serine/threonine-protein kinase PAK 1 (Homo sapiens), sequence (Q13153 whole entry): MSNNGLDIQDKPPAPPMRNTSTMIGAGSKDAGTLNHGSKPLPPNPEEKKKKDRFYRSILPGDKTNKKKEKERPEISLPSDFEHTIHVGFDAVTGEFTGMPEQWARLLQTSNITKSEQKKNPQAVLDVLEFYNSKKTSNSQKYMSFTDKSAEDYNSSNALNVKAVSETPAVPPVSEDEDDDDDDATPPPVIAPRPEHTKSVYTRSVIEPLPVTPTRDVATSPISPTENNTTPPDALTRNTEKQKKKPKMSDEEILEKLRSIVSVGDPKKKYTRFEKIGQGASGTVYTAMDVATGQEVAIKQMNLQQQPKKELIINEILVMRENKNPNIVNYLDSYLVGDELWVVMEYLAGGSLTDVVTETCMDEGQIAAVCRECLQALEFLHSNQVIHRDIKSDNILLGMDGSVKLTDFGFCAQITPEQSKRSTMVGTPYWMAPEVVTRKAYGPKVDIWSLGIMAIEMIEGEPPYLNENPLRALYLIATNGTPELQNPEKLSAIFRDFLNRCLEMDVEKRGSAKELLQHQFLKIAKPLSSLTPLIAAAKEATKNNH
Dual specificity protein kinase CLK2 (Homo sapiens), sequence (P49760 whole entry, looked up, canonical isoform): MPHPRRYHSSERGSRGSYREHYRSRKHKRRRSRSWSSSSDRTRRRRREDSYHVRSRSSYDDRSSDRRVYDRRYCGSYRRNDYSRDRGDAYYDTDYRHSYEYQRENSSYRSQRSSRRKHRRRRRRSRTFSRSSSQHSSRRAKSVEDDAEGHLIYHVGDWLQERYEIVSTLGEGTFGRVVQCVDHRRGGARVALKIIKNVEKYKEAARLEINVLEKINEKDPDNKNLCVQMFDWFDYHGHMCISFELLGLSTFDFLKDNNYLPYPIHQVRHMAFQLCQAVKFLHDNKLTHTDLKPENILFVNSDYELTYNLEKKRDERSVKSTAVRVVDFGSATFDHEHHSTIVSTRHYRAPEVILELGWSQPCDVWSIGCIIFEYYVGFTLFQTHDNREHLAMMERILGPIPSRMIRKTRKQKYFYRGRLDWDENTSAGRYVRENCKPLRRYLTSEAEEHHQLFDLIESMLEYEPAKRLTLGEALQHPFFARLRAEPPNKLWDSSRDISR
Cyclin-dependent kinase 19 (Homo sapiens), sequence (Q9BWU1 whole entry): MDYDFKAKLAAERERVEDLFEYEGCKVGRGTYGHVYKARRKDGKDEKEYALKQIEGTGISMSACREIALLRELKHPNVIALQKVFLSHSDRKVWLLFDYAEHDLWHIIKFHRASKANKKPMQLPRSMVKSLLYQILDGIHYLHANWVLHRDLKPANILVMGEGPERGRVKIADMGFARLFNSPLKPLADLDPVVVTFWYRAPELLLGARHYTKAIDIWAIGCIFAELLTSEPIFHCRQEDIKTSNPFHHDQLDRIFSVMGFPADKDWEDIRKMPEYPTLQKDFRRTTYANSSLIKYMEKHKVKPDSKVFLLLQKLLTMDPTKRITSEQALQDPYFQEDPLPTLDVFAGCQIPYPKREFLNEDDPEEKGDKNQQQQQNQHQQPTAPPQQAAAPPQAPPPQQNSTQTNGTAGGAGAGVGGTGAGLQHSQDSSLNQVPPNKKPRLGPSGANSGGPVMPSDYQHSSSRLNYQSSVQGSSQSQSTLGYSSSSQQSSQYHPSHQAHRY
NUAK family SNF1-like kinase 2 (Homo sapiens), sequence (Q9H093 whole entry): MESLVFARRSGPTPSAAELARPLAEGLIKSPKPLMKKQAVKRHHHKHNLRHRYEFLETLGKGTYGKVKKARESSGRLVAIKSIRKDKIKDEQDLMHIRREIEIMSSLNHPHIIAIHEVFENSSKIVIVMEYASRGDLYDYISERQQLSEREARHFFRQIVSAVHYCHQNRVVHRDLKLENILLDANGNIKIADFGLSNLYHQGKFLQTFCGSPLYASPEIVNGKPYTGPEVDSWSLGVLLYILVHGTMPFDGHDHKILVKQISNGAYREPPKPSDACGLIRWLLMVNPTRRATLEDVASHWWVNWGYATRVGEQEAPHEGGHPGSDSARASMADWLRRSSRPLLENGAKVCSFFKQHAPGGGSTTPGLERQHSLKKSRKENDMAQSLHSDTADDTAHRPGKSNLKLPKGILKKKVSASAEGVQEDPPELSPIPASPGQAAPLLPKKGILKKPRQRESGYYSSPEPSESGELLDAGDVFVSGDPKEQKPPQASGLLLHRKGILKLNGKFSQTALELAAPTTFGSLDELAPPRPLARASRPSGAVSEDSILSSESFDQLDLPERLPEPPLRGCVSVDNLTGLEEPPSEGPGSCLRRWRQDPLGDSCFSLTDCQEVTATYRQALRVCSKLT

C[C@@H]1CN(c2cc(-c3nn(C)c4ccc(OC5(C)CC5)cc34)ncn2)C[C@H](C)O1 [MLi-2-NC]
inactive: [1]; [11] 92% | [2]; [11] 76% | [3]; [11] 68% | [4]; [11] 100% | [5]; [11] 79% | [6]; [11] 76% | [7]; [11] 100% | [8]; [11] 81% | [9]; [11] 100% | [10]; [11] 100%

C[C@@H]1CN(c2cc(-c3n[nH]c4ccc(OC5(C)CC5)cc34)ncn2)C[C@H](C)O1 [MLi-2]
inactive: [1]; [12] 70% | [2]; [12] 97% | [3]; [12] 79% | [4]; [12] 98% | [5]; [12] 67% | [6]; [12] 84% | [7]; [12] 100% | [8]; [12] 85% | [9]; [12] 76% | [10]; [12] 83%
